Measured values taken from patent US20260317706A1, “COMPOSITION FOR INDUCING STEM CELLS TO DIFFERENTIATE INTO ASTROCYTES, CONTAINING CPI-455” (CHUNG ANG UNIVERSITY INDUSTRY ACADEMIC COOPERATION …, priority 2023, published 2026).

How the values were obtained:
Type in all cases: cell-based, Sprague-Dawley rat
bmp2 mRNA = test: RT-qPCR of il-6, lif, cntf and bmp2 mRNA in neural stem cells; details: 3 days, FIG. 3B
Description: (§1) Neural stem cells (NSCs) were cultured and harvested as previously reported (Faseb J 2018, 32 (2), 1108-1119). Specifically, the cells were harvested by dissecting the cerebral cortex from embryos of 14-day pregnant Sprague-Dawley rats (Orient Bio, Seongnam, South Korea). The cells were incubated for 6 days at 37° C. in 5% CO2 in Dulbecco's modified Eagle's medium (DMEM/F12) (Cat no. 12500-062, Gibco, Grand Island, NY, U.S.A.) containing Ham's nutrient mixture F-12 supplemented with 1% antibiotic-antimycotic (Cat no. 15240-062, Gibco), 2% B-27 supplement (Cat no. 17504-044, Gibco), 20 ng/ml EGF (Cat no. GF144, Chemicon, Burlington, MA, U.S.A.), and 20 ng/ml FGF2 (Cat no. GF003AF, Chemicon), so as to form neurospheres. The neurospheres were then dissociated into single cells using Accutase (Cat No. SCR005, Sigma-Aldrich, St. Louis, MO, U.S.A.). The cells were then attached to culture plates for one day in medium enriched with EGF and FGF2. […]
(§2) RNA was extracted using TRIzol® reagent (Cat no. 15596018, Thermo Fisher, Waltham, MA, U.S.A.) and dissolved in diethylpyrocarbonate-treated water (Cat no. C-9030, Bioneer, Daejeon, South Korea). Complementary DNA (cDNA) was synthesized from 1 μg of RNA per sample using a QuantiTect reverse transcriptase kit (Cat no. 205311, Qiagen, Hilden, Germany). […]

TUBB3 = test: Western blot of TUBB3 in differentiating neural stem cells; details: NSCs without EGF and FGF2, 4 days, vs 0.1% DMSO, FIG. 1A
Description: as §1
(§3) Chemiluminescence was detected on CP-BU new film (Agfa, Mortsel, Belgium) using western blotting luminol reagent (Cat no. sc-2048, Santa Cruz Biotechnology). Band intensity was quantified using ImageJ version 2.3.0. GAPDH (Glyceraldehyde-3-phosphate dehydrogenase) was measured as a housekeeping protein. […]

STAT3 = test: Western blot of STAT3 expression and phosphorylation in neural stem cells; details: 50 μM, 4 days, FIG. 3A
Description: as §1
Chemiluminescence was detected on CP-BU new film (Agfa, Mortsel, Belgium) using western blotting luminol reagent (Cat no. sc-2048, Santa Cruz Biotechnology). Band intensity was quantified using ImageJ version 2.3.0. GAPDH (Glyceraldehyde-3-phosphate dehydrogenase) was measured as a housekeeping protein.

GFAP = test: Western blot of TUBB3, GFAP and OLIG2 in differentiating neural stem cells; details: NSCs without EGF and FGF2, 4 days, vs 0.1% DMSO, FIG. 1A
Description: as §1, §3

OLIG2 = test: Western blot of OLIG2 in differentiating neural stem cells; details: NSCs without EGF and FGF2, 4 days, vs 0.1% DMSO, FIG. 1A
Description: as §1, §3

neural stem cells (NSCs) = test: Immunocytochemistry (ICC) of differentiating neural stem cells
Description: Neural stem cells (NSCs) were cultured and harvested as previously reported (Faseb J 2018, 32 (2), 1108-1119). Specifically, the cells were harvested by dissecting the cerebral cortex from embryos of 14-day pregnant Sprague-Dawley rats (Orient Bio, Seongnam, South Korea). The cells were incubated for 6 days at 37° C. in 5% CO2 in Dulbecco's modified Eagle's medium (DMEM/F12) (Cat no. 12500-062, Gibco, Grand Island, NY, U.S.A.) containing Ham's nutrient mixture F-12 supplemented with 1% antibiotic-antimycotic (Cat no. 15240-062, Gibco), 2% B-27 supplement (Cat no. 17504-044, Gibco), 20 ng/ml EGF (Cat no. GF144, Chemicon, Burlington, MA, U.S.A.), and 20 ng/ml FGF2 (Cat no. GF003AF, Chemicon), so as to form neurospheres. The neurospheres were then dissociated into single cells using Accutase (Cat No. SCR005, Sigma-Aldrich, St. Louis, MO, U.S.A.). The cells were then attached to culture plates for one day in medium enriched with EGF and FGF2. Next, the NSCs were treated with DMEM/F12 medium containing 1% antibiotic-antimycotic, 2% B-27 supplement, and either DMSO (Cat no. 472301, Sigma-Aldrich) or various concentrations of CPI-455 (Cat no. HY-100421, Medchemexpress, Princeton, NJ, U.S.A.) dissolved in DMSO. The medium was replaced every 2 days. Cells for western blot and immunostaining were cultured for 4 days after treatment with CPI-455. Cells for RT-qPCR and ChIP-qPCR were cultured for 3 days after treatment with CPI-455.
Immunocytochemistry was performed as previously reported (Faseb J 2018, 32 (2), 1108-1119). Specifically, the cells were fixed in 4% paraformaldehyde solution (Cat no. P231, Biosesang, Seongnam, South Korea) for 30 minutes. The cells were blocked with 5% goat serum (Cat no. S26, Millipore) diluted in 0.2% Triton X-100 (Cat no. 0694-1L, VWR International, Radnor, PA, U.S.A.).
The cells were stained for 1 hour with the following primary antibodies: TUBB3 (1:1000; Cat no. T5076, Sigma-Aldrich) and GFAP (1:500; Cat no. Z0334, Dako, Santa Clara, CA, U.S.A.). Next, the following secondary antibodies were applied for 30 minutes: Alexa488 goat anti-mouse IgG (1:1000; Cat no. A21131, Invitrogen, Waltham, MA, U.S.A.) and Cy3 goat anti-rabbit IgG (1:1000; Cat no. 111-165-144, Jackson, West Grove, PA, U.S.A.).
The nuclei were stained by treating the cells with 0.01% DAPI (4′,6-diamidino-2-phenylindole) (Cat No. D9542, Sigma-Aldrich) in PBS solution for 5 minutes. Fluorescent images were captured using a Leica DM IL inverse fluorescent microscope and LAS X software (Leica, Wetzlar, Germany).
NSCs proliferate in the presence of an epidermal growth factor (EGF) and […] growth factor-2 (FGF2), and in the absence of growth factors in a medium, NSCs differentiate into neurons and astrocytes. […]

gfap mRNA = test: RT-qPCR of gfap mRNA in differentiating neural stem cells; details: 50 μM, 3 days without EGF and FGF2, vs 0.1% DMSO, FIG. 1B
Description: as §1, §2

lif mRNA = test: RT-qPCR of lif mRNA in neural stem cells; details: 3 days, CPI-455-induced astrocytogenesis
Description: as §1, §2

[1] = 50 μM, 4 days without EGF and FGF2, vs 0.1% DMSO, FIGS. 2A and 2B

Compound: CC(C)c1c(-c2ccccc2)[nH]c2c(C#N)cnn2c1=O [CPI-455, 4,7-dihydro-6-(1-methylethyl)-7-oxo-5-phenyl-pyrazolo[1,5-a]pyrimidine-3-carbonitrile]
- bmp2 mRNA expression (bmp2 mRNA; 50 μM): significantly increased
- bmp2 mRNA among the investigated cytokines (il-6, lif, cntf, bmp2) (bmp2 mRNA; comparison with il-6, lif, cntf): only cytokine mRNA that showed a significant increase
- TUBB3 protein expression (TUBB3): no significant change
- phosphorylated STAT3 (pSTAT3) with respect to total STAT3 (STAT3): significantly increased
- GFAP protein expression compared to the control (GFAP): significantly increased
- OLIG2 protein expression (OLIG2): no significant change
- number of GFAP-positive cells (neural stem cells (NSCs); [1]): significantly increased
- percentage of TUBB3-positive cells (neural stem cells (NSCs); [1]): did not show any significant difference
- number of DAPI-positive cells (neural stem cells (NSCs); 4 days without EGF and FGF2, vs 0.1% DMSO): No significant difference
- cytotoxicity during NSC differentiation (neural stem cells (NSCs); 4 days, inferred from DAPI-positive cell number): not inducing cytotoxicity
- gfap mRNA expression compared to the control (gfap mRNA): significantly increased
- lif expression (lif mRNA): without an increase
